Target: T1, truncated AtAPC2 (N-terminally truncated AtAPC2) (Arabidopsis thaliana, UniProt Q9FI43)
T1 construct: gene APC2; transmembrane carrier domain from residue 164 to C-terminus, EF-hand N-terminal domain removed, N-terminal His tag (pET16b), E. coli Rosetta 2 inclusion bodies, reconstituted in liposomes
T1 sequence (Q9FI43 164-487): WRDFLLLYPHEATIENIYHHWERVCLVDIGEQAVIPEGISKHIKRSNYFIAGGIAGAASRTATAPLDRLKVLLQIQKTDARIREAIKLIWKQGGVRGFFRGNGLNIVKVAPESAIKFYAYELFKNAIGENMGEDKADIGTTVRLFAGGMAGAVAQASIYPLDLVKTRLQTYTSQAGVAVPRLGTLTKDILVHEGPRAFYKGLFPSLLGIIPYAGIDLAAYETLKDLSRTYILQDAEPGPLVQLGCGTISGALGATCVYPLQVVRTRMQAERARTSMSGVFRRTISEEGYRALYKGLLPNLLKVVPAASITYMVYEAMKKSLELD
Test: radiolabelled uptake into proteoliposomes
Type: biochemical
Conditions: pH 7.5, 30 °C, labelled compound

Compound: Nc1ncnc2c1ncn2[C@@H]1O[C@H](COP(=O)(O)OP(=O)(O)OP(=O)(O)O)[C@@H](O)[C@H]1O [ATP]
- radiolabelled uptake into proteoliposomes (ATP import / Pi export (Pi-loaded), 50 μM ATP): ATP uptake measurements verified that truncated AtAPC2 is functional

Compound: Nc1ncnc2c1ncn2[C@@H]1O[C@H](COP(=O)(O)OP(=O)(O)O)[C@@H](O)[C@H]1O [ADP]
- radiolabelled uptake into proteoliposomes (ADP import / ATP export (ATP-loaded), 5 min): ADP/ATP exchange of both, full-length and truncated, AtAPC2 variants remained more or less unaltered
